ChEMBL document CHEMBL1151318, “New secosteroids from a gorgonian of the genus Muricella” (1998)
In brackets after ≈: the same amount, converted by molar mass.

Columns and labels:
K562 = assay: Cytotoxicity against human K562 cells; format: functional; conditions: read-out: LC50 (the source's name)
[1] = target: Phospholipase A2 (Homo sapiens) (UniProt P04054); assay: Inhibition of PLA2 at 50 ug/mL
Sequence of Phospholipase A2 (Homo sapiens) (P04054 23-148 limits assumed): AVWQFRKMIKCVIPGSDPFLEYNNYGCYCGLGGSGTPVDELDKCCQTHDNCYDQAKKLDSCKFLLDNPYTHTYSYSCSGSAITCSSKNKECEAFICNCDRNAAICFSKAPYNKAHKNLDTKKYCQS

SMILES: Cc1ccc(O)cc1CC[C@@H]1[C@H](O)CC[C@]2(C)[C@@H]([C@H](C)CCCC(C)C)CC[C@@H]12 [ASTROGORGIADIOL]
- CC50 (K562): 12.1 µg/mL (≈ 30.2 µM)
- inhibition [1]: 47%

SMILES: CC(C)=CCC[C@@H](C)[C@H]1CC[C@H]2[C@H](CCc3cc(O)ccc3C)[C@H](O)CC[C@]12C [CALICOFEROL G]
- CC50 (K562): 2.1 µg/mL (≈ 5.27 µM)
- inhibition [1]: 55%

SMILES: Cc1ccc(O)cc1CC[C@@H]1[C@H](O)CC[C@]2(C)[C@@H]([C@H](C)/C=C/C(C)C(C)C)CC[C@@H]12 (stereo partly drawn) [CALICOFEROL F]
- CC50 (K562): 3.2 µg/mL (≈ 7.75 µM)

SMILES: Cc1ccc(O)cc1CC[C@@H]1[C@H](O)CC[C@]2(C)[C@@H]([C@H](C)/C=C/C(C)C)CC[C@@H]12 [CALICOFEROL H]
- CC50 (K562): 10.7 µg/mL (≈ 27.8 µM)
- inhibition [1]: 67%

SMILES: Cc1ccc(O)cc1CC[C@@H]1C(=O)CC[C@]2(C)[C@@H]([C@H](C)CCCC(C)C)[C@@H](O)C[C@@H]12 [CALICOFEROL I]
- CC50 (K562): 9.6 µg/mL (≈ 23.2 µM)
